pKi: −log10 of the molar value.
Tests used:
[1] = target: T1, human adenosine A2a receptor (Homo sapiens, UniProt P29274); test: Adenosine A2a Receptor Functional Assay (A2AGAL2); assay type: cell-based; details: CHO-K1 cells overexpressing human A2a, cAMP inducible beta-galactosidase reporter, 15 nM NECA agonist challenge
T1 construct: expressed in transfected cells; host or cells: CHO-K1
Description: Adenosine A2a Receptor Functional Assay (A2AGAL2)
To initiate the functional assay, cryopreserved CHO-K1 cells overexpressing the human adenosine A2a receptor and containing a cAMP inducible beta-galactosidase reporter gene were thawed, centrifuged, DMSO containing media removed, and then seeded with fresh culture media into clear 384-well tissue culture treated plates (BD #353961) at a concentration of 10K cells/well. Prior to assay, these plates were cultured for two days at 37° C., 5% CO2, 90% Rh. On the day of the functional assay, culture media was removed and replaced with 45 uL assay medium (Hams/F-12 Modified (Mediatech #10-080CV) supplemented w/0.1% BSA). Test compounds were diluted and 11 point curves created at a 1000× concentration in 100% DMSO. Immediately after addition of assay media to the cell plates, 50 nL of the appropriate test compound antagonist or agonist control curves were added to cell plates using a Cartesian Hummingbird. Compound curves were allowed to incubate at room temperature on cell plates for approximately 15 minutes before addition of a 15 nM NECA (Sigma E2387) agonist challenge (5 uL volume). A control curve of NECA, a DMSO/Media control, and a single dose of Forskolin (Sigma F3917) were also included on each plate. After additions, cell plates were allowed to incubate at 37° C., 5% CO2, 90% Rh for 5.5-6 hours. After incubation, media was removed, and cell plates were washed 1× 50 uL with DPBS w/o Ca & Mg (Mediatech 21-031-CV). Into dry wells, 20 uL of 1× Reporter Lysis Buffer (Promega E3971 (diluted in dH2O from 5× stock)) was added to each well and plates frozen at −20° C. overnight. For β-galactosidase enzyme calorimetric assay, plates were thawed out at room temperature and 20 μL 2× assay buffer (Promega) was added to each well. Color was allowed to develop at 37° C., 5% CO2, 90% Rh for 1-1.5 h or until reasonable signal appeared. The calorimetric reaction was stopped with the addition of 60 μL/well 1M sodium carbonate. Plates were counted at 405 nm on a SpectraMax Microplate Reader (Molecular Devices). Data was analyzed in Microsoft Excel and IC/EC50 curves were fit using a standardized macro.

[2] = target: T2, human A2a adenosine receptor (Homo sapiens, UniProt P29274); test: Ligand Binding Assay for Adenosine A2a Receptor (A2A-B); details: plasma membrane of HEK293 cells containing human A2a receptor, radioligand [3H]CGS21680
T2 construct: purchased PerkinElmer RB-HA2a; host or cells: HEK293 plasma membrane
T2 sequence (P29274 whole entry): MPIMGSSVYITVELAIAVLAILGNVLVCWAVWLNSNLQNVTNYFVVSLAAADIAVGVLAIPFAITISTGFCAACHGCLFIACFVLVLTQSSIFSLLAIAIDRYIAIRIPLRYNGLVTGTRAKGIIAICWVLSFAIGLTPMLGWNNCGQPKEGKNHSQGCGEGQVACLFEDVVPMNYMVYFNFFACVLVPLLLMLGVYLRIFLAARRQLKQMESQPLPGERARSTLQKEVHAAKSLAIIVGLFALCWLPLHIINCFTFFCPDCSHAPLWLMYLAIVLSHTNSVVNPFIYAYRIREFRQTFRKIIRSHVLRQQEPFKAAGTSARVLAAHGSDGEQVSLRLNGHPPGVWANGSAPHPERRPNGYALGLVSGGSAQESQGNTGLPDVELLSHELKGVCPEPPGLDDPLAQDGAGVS
Description: Ligand Binding Assay for Adenosine A2a Receptor
Ligand binding assay of adenosine A2a receptor was performed using plasma membrane of HEK293 cells containing human A2a adenosine receptor (PerkinElmer, RB-HA2a) and radioligand [^3H]CGS21680 (PerkinElmer, NET1021). Assay was set up in 96-well polypropylene plate in total volume of 200 μL by sequentially adding 20 μL 1:20 diluted membrane, 130 μL assay buffer (50 mM Tris.HCl, pH 7.4 10 mM MgCl2, 1 mM EDTA) containing [^3H] CGS21680, 50 μL diluted compound (4×) or vehicle control in assay buffer. Nonspecific binding was determined by […] NECA. Reaction was carried out at room temperature for 2 hours before filtering through 96-well GF/C filter plate pre-soaked in 50 mM Tris.HCl, pH 7.4 containing 0.3% polyethylenimine. Plates were then washed 5 times with cold 50 mM Tris.HCl, pH 7.4, dried and sealed at the bottom. Microscintillation fluid 30 μL was added to each well and the top sealed. Plates were counted on Packard Topcount for [^3H]. Data was analyzed in Microsoft Excel and GraphPad Prism programs. (Varani, K.; Gessi, S.; Dalpiaz, A.; Borea, P. A. British Journal of Pharmacology, 1996, 117, 1693)

[3] = target: T3, human adenosine A1 receptor (Homo sapiens, UniProt P30542); test: Adenosine A1 Receptor Functional Assay (A1GAL2); assay type: cell-based; details: CHO-K1 cells overexpressing human A1, cAMP inducible beta-galactosidase reporter, 4 nM r-PIA/1 uM Forskolin challenge
T3 construct: expressed in transfected cells; host or cells: CHO-K1
T3 sequence (P30542 1-326): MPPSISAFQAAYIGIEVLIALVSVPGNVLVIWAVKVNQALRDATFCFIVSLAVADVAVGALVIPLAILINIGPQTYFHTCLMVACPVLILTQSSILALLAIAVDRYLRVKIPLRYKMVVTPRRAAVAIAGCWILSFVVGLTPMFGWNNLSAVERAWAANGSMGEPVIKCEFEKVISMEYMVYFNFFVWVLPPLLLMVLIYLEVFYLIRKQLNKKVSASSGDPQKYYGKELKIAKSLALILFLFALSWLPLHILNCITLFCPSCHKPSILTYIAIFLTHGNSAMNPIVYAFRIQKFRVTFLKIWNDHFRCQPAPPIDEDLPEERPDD
Description: Adenosine A1 Receptor Functional Assay (A1GAL2)
To initiate the functional assay, cryopreserved CHO-K1 cells overexpressing the human adenosine A1 receptor and containing a cAMP inducible beta-galactosidase reporter gene were thawed, centrifuged, DMSO containing media removed, and then seeded with fresh culture media into clear 384-well tissue culture treated plates (BD #353961) at a concentration of 10K cells/well. Prior to assay, these plates were cultured for two days at 37+ C., 5% CO2, 90% Rh. On the day of the functional assay, culture media was removed and replaced with 45 uL assay medium (Hams/F-12 Modified (Mediatech #10-080CV) supplemented w/0.1% BSA). Test compounds were diluted and 11 point curves created at a 1000× concentration in 100% DMSO. Immediately after addition of assay media to the cell plates, 50 nL of the appropriate test compound antagonist or agonist control curves were added to cell plates using a Cartesian Hummingbird. Compound curves were allowed to incubate at room temperature on cell plates for approximately 15 minutes before addition of a 4 nM r-PIA (Sigma P4532)/1 uM Forskolin (Sigma F3917) agonist challenge (5 uL volume). A control curve of r-PIA in 1 uM Forskolin, a DMSO/Media control, and a single dose of Forskolin were also included on each plate. After additions, cell plates were allowed to incubate at 37° C., 5% CO2, 90% Rh for 5.5-6 hours. After incubation, media was removed, and cell plates were washed 1× 50 uL with DPBS w/o Ca & Mg (Mediatech 21-031-CV). Into dry wells, 20 uL of 1× Reporter Lysis Buffer (Promega E3971 (diluted in dH2O from 5× stock)) was added to each well and plates frozen at −20° C. overnight. For β-galactosidase enzyme calorimetric assay, plates were thawed out at room temperature and 20 μL 2× assay buffer (Promega) was added to each well. Color was allowed to develop at 37° C., 5% CO2, 90% Rh for 1-1.5 h or until reasonable signal appeared. The calorimetric reaction was stopped with the addition of 60 μL/well 1M sodium carbonate. Plates were counted at 405 nm on a SpectraMax Microplate Reader (Molecular Devices). Data was analyzed in Microsoft Excel and IC/EC50 curves were fit using a standardized macro.

T1 sequence (P29274 whole entry): as the sequence (P29274 whole entry) above

| pKi [1] | pKi [2] | pKi [3] | SMILES |
| --- | --- | --- | --- |
| 8.03 | 7.92 | 6.77 | COc1ncccc1C(O)c1cc2c(N)nc(-c3cccc(C#N)c3)nc2s1 (stereo not shown) [Example 9, 3-{4-Amino-6-[hydroxy-(2-methoxy-pyridin-3-yl)-methyl]-thieno[2,3-d]pyrimidin-2-yl}-benzonitrile] |
| 7.84 | 7.47 | 6.99 | COc1ncccc1Cc1cc2c(N)nc(-c3cccc(C#N)c3)nc2s1 [Example 10, 3-[4-Amino-6-(2-methoxy-pyridin-3-ylmethyl)-thieno[2,3-d]pyrimidin-2-yl]-benzonitrile] |
| 8.30 | 7.46 | 6.82 | N#Cc1cccc(-c2nc(N)c3cc(C(O)c4ccccn4)sc3n2)c1 (stereo not shown) [Example 15, 3-[4-Amino-6-(hydroxy-pyridin-2-yl-methyl)-thieno[2,3-d]pyrimidin-2-yl]-benzonitrile] |
| 7.91 | 7.36 | 6.38 | N#Cc1cccc(-c2nc(N)c3cc(C(O)c4ccncc4Cl)sc3n2)c1 (stereo not shown) [Example 21, 3-{4-Amino-6-[(3-chloro-pyridin-4-yl)-hydroxy-methyl]-thieno[2,3-d]pyrimidin-2-yl}-benzonitrile] |
| 7.79 | 7.21 | 6.46 | N#Cc1cccc(-c2nc(N)c3cc(C(O)c4cccnc4Cl)sc3n2)c1 (stereo not shown) [Example 30, 3-{4-Amino-6-[(2-chloro-pyridin-3-yl)-hydroxy-methyl]-thieno[2,3-d]pyrimidin-2-yl}-benzonitrile] |
| 7.76 |  | 6.39 | N#Cc1cccc(-c2nc(N)c3cc(Cc4cccnc4)sc3n2)c1 [Example 32, 3-(4-Amino-6-pyridin-3-ylmethyl-thieno[2,3-d]pyrimidin-2-yl)-benzonitrile] |
| 8.35 | 8.18 | 7.07 | COc1cccnc1C(O)c1cc2c(N)nc(-c3cccc(C#N)c3)nc2s1 (stereo not shown) [Example 33, 3-{4-Amino-6-[hydroxy-(3-methoxy-pyridin-2-yl)-methyl]-thieno[2,3-d]pyrimidin-2-yl}-benzonitrile] |
| 8.91 | 7.70 | 7.58 | COc1cccnc1Cc1cc2c(N)nc(-c3cccc(C#N)c3)nc2s1 [Example 34, 3-[4-Amino-6-(3-methoxy-pyridin-2-ylmethyl)-thieno[2,3-d]pyrimidin-2-yl]-benzonitrile] |
| 7.94 | 7.55 | 6.15 | N#Cc1cccc(-c2nc(N)c3cc(Cc4cccnc4Cl)sc3n2)c1 [Example 35, 3-[4-Amino-6-(2-chloro-pyridin-3-ylmethyl)-thieno[2,3-d]pyrimidin-2-yl]-benzonitrile] |
| 6.81 |  | 6.14 | COc1ccc(C(O)c2cc3c(N)nc(-c4cccc(C#N)c4)nc3s2)cn1 (stereo not shown) [Example 36, 3-{4-Amino-6-[hydroxy-(6-methoxy-pyridin-3-yl)-methyl]-thieno[2,3-d]pyrimidin-2-yl}-benzonitrile] |
| 7.19 |  | 6.30 | COc1ccc(Cc2cc3c(N)nc(-c4cccc(C#N)c4)nc3s2)cn1 [Example 37, 3-[4-Amino-6-(6-methoxy-pyridin-3-ylmethyl)-thieno[2,3-d]pyrimidin-2-yl]-benzonitrile] |
| 8.85 | 7.24 | 7.52 | N#Cc1cccc(-c2nc(N)c3cc(Cc4ncccc4F)sc3n2)c1 [Example 38, 3-[4-Amino-6-(3-fluoro-pyridin-2-ylmethyl)-thieno[2,3-d]pyrimidin-2-yl]-benzonitrile] |
| 7.28 |  | 6.54 | COc1ncccc1C(=O)c1cc2c(N)nc(-c3cccc(C#N)c3)nc2s1 [Example 39, 3-[4-Amino-6-(2-methoxy-pyridine-3-carbonyl)-thieno[2,3-d]pyrimidin-2-yl]-benzonitrile] |
| 6.35 |  | 6.35 | Nc1nc(-c2cccc(F)c2)nc2sc(Cc3ccc(Cl)nc3)cc12 [Example 40, 6-(6-Chloro-pyridin-3-ylmethyl)-2-(3-fluoro-phenyl)-thieno[2,3-d]pyrimidin-4-ylamine] |
